{
  "source": "patent US7335770B2",
  "about": "“Triazine compounds and their analogs, compositions, and methods” (Reddy U5 Therapeutics, Inc., priority 2004, dated 2008)",
  "assay_type_in_all_cases": "cell-based",
  "key": {"[1]": {"tested_on": "IL6", "assay": "inhibition of TNF-induced IL6 production", "conditions": "for IC50: given as '50% at x μM', read-out: Inhibition of TNF-induced IL6 production: concentration giving 50% inhibition"}, "[2]": {"tested_on": "MCP1", "assay": "inhibition of TNF-induced MCP1", "conditions": "for IC50: in vitro", "description": "(§1) The activity of the compounds of the present invention in inhibiting glycated protein- and AGE-induced inflammation can be determined using the assays described herein and in U.S. patent application Ser. No. 10/026,335, which is herein incorporated in its entirety. Such assays comprise measurement of the specific activity of biological components involved in a known cellular response. The assays provide a measurable response in which the activity of the compounds is determined. One assay comprises measurement of the effects of compounds on an inflammatory response by cells to the presence of a stimulating agent. Yet another assay comprises endothelial cells that are stimulated by the addition of a glycated protein, the stimulating agent. The endothelial cells respond by producing specific cytokines. The amount of cytokines produced are determined by measurement protocols known to those skilled in the art. The compounds of the present invention are then added to the assay and the production of cytokines is measured. From the comparison of the assay without the compound with the assay with the compound, the biological effect of the compound can be determined. The compound may have an inhibitory effect, a stimulatory effect, or no effect at all.\nThe amount and type of cytokine produced can be determined using immunological methods, such as ELISA assays. The methods of the present invention are not limited by the type of assay used to measure the amount of cytokine produced, and any methods known to those skilled in the art and later developed can be used to measure the amount of cytokines produced in response to the stimulating agent and to the compound having unknown activity.\n(§2) Assays for determining the activity of compounds capable of modulating inflammation include those taught in U.S. patent application Ser. No. 10/026,335 and 09/969,013, which are both expressly incorporated by reference. In general, once the baseline response to the stimulating agent for the production of cytokines by the endothelial cells is established, thus comprising the control levels for the screening assay, the methods comprise addition of compounds of the present invention. The effect of the compound on the baseline response is determined by comparing the amount of cytokine produced in the presence of the stimulating agent and the amount of cytokine produced in the presence of the stimulating agent and the compound of the present invention. In a preferred method, compounds that have inhibitory effects on the inflammation of the cells in the presence of glycated albumin are then used as therapeutic agents. One or more compounds may be added to the screening assay. Combinations or mixtures of compounds can be added. Different amounts and formulations of the compounds are added to determine the effects on the screening assay. The screening assay may also be used to determine stimulatory compounds or compounds that have no effects in the assay."}, "[3]": {"tested_on": "VCAM1", "assay": "inhibition of TNF-induced VCAM1", "conditions": "for IC50: in vitro", "description": "as §1\nAn aspect of the present invention comprises methods and compositions for the treatment of diseases, preconditions or pathologies associated with inflammatory cytokines and other inflammation related molecules including, but not limited to IL-6, VCAM-1, AGE-induced MCP-1, (monocyte chemoattractant protein 1), heme oxygenase, insulin-like growth factor, selectins, IP-10, MIG and I-TAC, NF-κB, IL-1β (interleukin 1β), IL-11 (interleukin 11), m-CSF (macrophage colony stimulating factor), fibrinogen, TNF-α (tumor necrosis factor α), adhesion molecules, selecting, VCAM-1 (Vascular Cell Adhesion Molecule-1), CRP (C-reactive protein), and PAI-1 (plasminogen activator inhibitor-1). Examples of such diseases include the pathogenesis of atherosclerosis and the development of diabetic vasculopathy in type II diabetes. For example, affecting the activity or level of TNFα is a key mediator of tissue damage following acute or chronic inflammatory reactions. The present invention contemplates providing compositions and methods that modulate the effects of cytokines and inflammatory molecules such as TNFα, IL-6, VCAM-1, IP-10, MIG, I-TAC and AGE-induced MCP-1, and treat the associated diseases, acute or chronic conditions, preconditions and pathologies.\nas §2"}},
  "note": "Where a name gives a salt, the structure may show the parent alone.",
  "data": [
    {"smiles": "COc1ccc(Oc2nc(Oc3ccc(OC)c(F)c3)nc(Oc3ccc(OC)c(F)c3)n2)cc1F", "note": "[drawing 608, 2,4,6-Tris-(3-fluoro-4-meth-oxy-phenoxy)-[1,3,5]triazine]", "values": [
      {"measurement": "inhibition at 10 µM", "setting": "[1]", "value": 5, "unit": "%"}
    ]},
    {"smiles": "COc1ccc(Nc2nc(NCCCCCNC(=O)CCCCC3SCC4NC(=O)NC43)nc(NC3CCCCCC3)n2)cc1Cl", "note": "(centres unmarked) [drawing 609, 5-(2-Oxo-hexahydro-thieno[3,4-d]imi-dazol-4-yl)-pentanoicacid {5-[4-(3-chloro-4-methoxy-phenylamino)-6-cycloheptylamino-[1,3,5]tri-azin-2-ylamino]-pentyl}-amide]", "values": [
      {"measurement": "IC50", "setting": "[1]", "value": 5, "unit": "µM"}
    ]},
    {"smiles": "COc1ccc(Nc2nc(NC3CCCCCC3)nc(NC3CCN(C(=O)CCCCC4SCC5NC(=O)NC54)CC3)n2)cc1Cl", "note": "(centres unmarked) [drawing 610]", "values": [
      {"measurement": "IC50", "setting": "[1]", "value": 19, "unit": "µM"}
    ]},
    {"smiles": "CN1CCC(N(C)c2nc(Nc3cccc(F)c3)nc(NC3CCCCCC3)n2)CC1", "note": "[drawing 612, N-Cyclo-heptyl-N′-(3-fluoro-phenyl)-N″-meth-yl-N″-(1-methyl-piperidin-4-yl)-[1,3,5]tri-azine-2,4,6-triamine]", "values": [
      {"measurement": "IC50", "setting": "[1]", "value": 3.2, "unit": "µM"}
    ]},
    {"smiles": "CCN1CCCC1CNc1nc(Nc2ccc(OC)c(F)c2)nc(N2CCN(CC(=O)N3CCCC3)CC2)n1", "note": "(centres unmarked) [drawing 613, 2-{4-[4-[(1-Ethyl-pyrrolidin-2-ylmethyl)-amino]-6-(3-fluoro-4-meth-oxy-phenylamino)-[1,3,5tri-azin-2-yl]-pipera-zin-1-yl}-1-pyrrolidin-1-yl-eth-anone dihydrogen chloride salt]", "values": [
      {"measurement": "inhibition at 10 µM", "setting": "[1]", "value": 42, "unit": "%"}
    ]},
    {"smiles": "COc1ccc(Nc2nc(NC3CCCCCC3)nc(OCC3CCCN3C)n2)cc1Cl", "note": "(centres unmarked) [drawing 614]", "values": [
      {"measurement": "IC50", "setting": "[2]", "value": 3, "unit": "µM"},
      {"measurement": "IC50", "setting": "[3]", "value": 2.5, "unit": "µM"}
    ]},
    {"smiles": "COc1ccc(Nc2nc(NC3CCCCCC3)nc(OC3CCN(C)CC3)n2)cc1Cl", "note": "[drawing 615]", "values": [
      {"measurement": "IC50", "setting": "[2]", "value": 4.3, "unit": "µM"},
      {"measurement": "IC50", "setting": "[3]", "value": 4.5, "unit": "µM"}
    ]},
    {"smiles": "COc1ccc(Nc2nc(NC3CCCCCC3)nc(OC3CCCN(C(C)=O)C3)n2)cc1Cl", "note": "(centres unmarked) [drawing 617]", "values": [
      {"measurement": "IC50", "setting": "[2]", "value": 4.6, "unit": "µM"},
      {"measurement": "IC50", "setting": "[3]", "value": 5.2, "unit": "µM"}
    ]},
    {"smiles": "COc1ccc(Nc2nc(NC3CCCCCC3)nc(Oc3ccc(C#CC(C)(C)O)cc3)n2)cc1Cl", "note": "[drawing 620]", "values": [
      {"measurement": "IC50", "setting": "[2]", "value": 3.7, "unit": "µM"},
      {"measurement": "IC50", "setting": "[3]", "value": 7, "unit": "µM"}
    ]},
    {"smiles": "COc1ccc(Nc2nc(NC3CCCCCC3)nc(Oc3ccccc3C#CC(C)(C)O)n2)cc1Cl", "note": "[drawing 621]", "values": [
      {"measurement": "IC50", "setting": "[2]", "value": 6.5, "unit": "µM"},
      {"measurement": "IC50", "setting": "[3]", "value": 7, "unit": "µM"}
    ]},
    {"smiles": "CCN1CCCC(Oc2nc(Nc3ccc(OC)c(Cl)c3)nc(NC3CCCCCC3)n2)C1", "note": "(centres unmarked) [drawing 622]", "values": [
      {"measurement": "IC50", "setting": "[2]", "value": 4.2, "unit": "µM"},
      {"measurement": "IC50", "setting": "[3]", "value": 6, "unit": "µM"}
    ]},
    {"smiles": "COc1ccc(Nc2nc(NC3CCCCCC3)nc(Oc3ccc(C=O)cc3)n2)cc1Cl", "note": "[drawing 623]", "values": [
      {"measurement": "IC50", "setting": "[2]", "value": 6, "unit": "µM"},
      {"measurement": "IC50", "setting": "[3]", "value": 5.2, "unit": "µM"}
    ]},
    {"smiles": "COc1ccc(Nc2nc(NC(C)C)nc(Oc3ccc(C#CC(C)(C)O)cc3)n2)cc1Cl", "note": "[drawing 627]", "values": [
      {"measurement": "IC50", "setting": "[2]", "value": 3, "unit": "µM"},
      {"measurement": "IC50", "setting": "[3]", "value": 5.7, "unit": "µM"}
    ]},
    {"smiles": "COc1ccc(Nc2nc(NC3CCCCCC3)nc(Sc3c(Cl)cccc3Cl)n2)cc1Cl", "note": "[drawing 631]", "values": [
      {"measurement": "inhibition at 10 µM", "setting": "[2]; @ 10 uM concentration, read-out: TNF-induced MCP1, In-vitro % of inhibition", "value": 11, "unit": "%"},
      {"measurement": "inhibition at 10 µM", "setting": "[3]; @ 10 uM concentration, read-out: TNF-induced VCAM1, In-vitro % of inhibition", "value": 6, "unit": "%"}
    ]}
  ]
}
